The values below come from patent publication US10526347B2, “3-(3H-imidazo[4,5-B]pyridin-2-yl)-1H-pyrazolo[3,4-B]pyridine and therapeutic uses thereof” (Samumed, LLC, priority 2014, dated 2020).

Type in all cases: cell-based
The test system of experiment [1] is Wnt activity (SW480 colon carcinoma cells stably expressing the Sp5-Luc reporter gene). In words: Sp5-Luc reporter gene screening assay for Wnt activity. To be noted: Homo sapiens. An outline of the steps: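 The SW480 cells carry a lentiviral luciferase reporter driven by a Sp5 promoter with eight TCF/LEF sites. They were plated at 10,000 cells/well in 10% FCS overnight, then pinned with 50 nl of 3-fold dilutions (10 mM top source concentration) into 50 μl.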
(In general: A reporter such as luciferase makes a cellular process visible.)

Experiment [2] deals with primary human mesenchymal stem cells (hMSCs). In words: Chondrogenesis induction in primary human mesenchymal stem cells (chondrogenic nodules, Rhodamine B / Nile Red). Particulars: 6 days; for EC (100% of TGF-beta3 activity): Homo sapiens, Mesenchymal stem cells, 144 h, concentration required to induce chondrogenesis equivalent to TGF-β3 10 ng/mL, read-out: Conc (nM) of 100% TGF-β3 activity; for Max. Activity as % TGF-β3 activity: positive control TGF-β3 10 ng/mL, nodule number normalized to DMSO. The method, then:
The above synthesized compounds were screened using primary human mesenchymal stem cells (hMSCs) to determine their ability to induce chondrogenesis (process by which cartilage is developed).
Primary human mesenchymal stem cells (hMSCs) were purchased from Lonza (Walkersville, Md.) and expanded in Mesenchymal Stem Cell Growth Media (Lonza). Cells between passage 3 and 6 were used for the experiments.
Each compound was dissolved in DMSO as a 10 mM stock and used to prepare compound source plates. Serial dilution (1:3, 6-point dose-response curves from 2700 nM to 10 nM) and compound transfer was performed using the ECHO 550 (Labcyte, Sunnyvale, Calif.) into 96-well clear bottom assay plates (Greiner Bio-One) with appropriate DMSO backfill for a final DMSO concentration of 0.03%. hMSCs were plated at 20,000 cells/well in 250 μL/well Incomplete Chondrogenic Induction Medium (Lonza; DMEM, dexamethasone, ascorbate, insulin-transferrin-selenium [ITS supplement], gentamycin-amphotericin [GA-1000], sodium pyruvate, proline and L-glutamine). TGF-β3 (10 ng/mL) was used as a positive control for differentiation while negative control wells were treated with 75 nL DMSO for normalization and calculating EC50 values. Cells were incubated at 37° C. and 5% CO2 for 6 days. To image chondrogenic nodules, the cells were fixed using 4% formaldehyde (Electron Microscopy Sciences), and stained with 2 μg/mL Rhodamine B (Sigma-Aldrich) and 20 μM Nile Red (Sigma-Aldrich) [Johnson K., et. al, A Stem Cell-Based Approach to Cartilage Repair, Science, (2012), 336(6082). 717-721]. The nodules imaged (4 images per well at 4× magnification) by excitation at 531 nm and emission at 625 nm and quantified using the CellInsight CX5 (Thermo Scientific). Number of nodules in each well was normalized to the average of 3 DMSO treated wells on the same plate using Excel (Microsoft Inc.). The normalized averages (fold change over DMSO) of 3 replicate wells for each compound concentration were calculated. Due to solubility limitations of some of the compounds, curve fitting was incomplete leading to inaccurate EC50 determinations.
Using TGF-β3 as a positive control, the concentration of test compounds required to induce equivalent levels of chondrogenesis is reported. In addition, the maximum activity of each compound and the respective dose that each compound reached maximum chondrogenesis activity is reported.

For experiment [3], the system named is primary human fibroblasts derived from IPF patients (LL29 cells). In words: Inhibition of the fibrotic process in TGF-β1 treated IPF patient fibroblasts (αSMA staining). To be noted: Fibroblast, 96 h, LL29 cells treated with TGF-β1 (20 ng/mL), 4 days, read-out: Inhibition of fibrosis EC50. An outline of the steps:
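LL29 IPF lung fibroblasts in F12 with 1% FBS, compound (11-point, 10 μM to 1.87 nM, 0.1% DMSO) plus TGF-β1 20 ng/mL for 4 days at 37° C. αSMA-positive % of SYTOX-negative cells by immunofluorescence imaging, normalized to TGF-β1 wells; EC50 from non-linear regression of triplicates.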

For orientation: IC50 means the concentration that inhibits the measured activity by half. The low end stands for greater potency, the high end for weaker potency. As a reminder, the EC50 is the concentration at which the effect is half-maximal.

Each structure is given as a SMILES string.

Take `Cc1cn(-c2ccnc3[nH]c(-c4n[nH]c5ncc(-c6cncc(NC(=O)CC(C)C)c6)cc45)nc23)cn1` [Compound 160, 3-Methyl-N-(5-(3-(7-(4-methyl-1H-imidazol-1-yl)-3H-imidazo[4,5-b]pyridin-2-yl)-1H-pyrazolo[3,4-b]pyridin-5-yl)pyridin-3-yl)butanamide]: the midpoint of inhibition in experiment [1], the IC50, lay at 8.3 nM. The EC (100% of TGF-beta3 activity) in experiment [2] is 26.8 nM.
In turn, `Nc1cncc(-c2cnc3[nH]nc(-c4nc5c(-c6ccccc6F)ccnc5[nH]4)c3c2)c1` [Compound 45, 5-(3-(7-(2-Fluorophenyl)-3H-imidazo[4,5-b]pyridin-2-yl)-1H-pyrazolo [3,4-b]pyridin-5-yl)pyridin-3-amine] displayed an IC50 in experiment [1] of 3.7 nM. In addition, in experiment [2], the “Max. Activity as % TGF-β3 activity” value stood at 300% and the EC (100% of TGF-beta3 activity) was determined as 59.9 nM. In addition, in experiment [3], the EC50 was ≤ 9 nM.
On the same counts, the results for `Fc1cccc(-c2ccnc3[nH]c(-c4n[nH]c5ncc(-c6cn[nH]c6)cc45)nc23)c1` [Compound 911, 3-(7-(3-Fluorophenyl)-3H-imidazo[4,5-b]pyridin-2-yl)-5-(1H-pyrazol-4-yl)-1H-pyrazolo[3,4-b]pyridine] are 30 nM, 100%, 110 nM and 29 nM.
Regarding `Cc1ccc(-c2ccnc3[nH]c(-c4n[nH]c5ncc(-c6cncc(N)c6)cc45)nc23)s1` [Compound 339, 5-(3-(7-(5-Methylthiophen-2-yl)-3H-imidazo[4,5-b]pyridin-2-yl)-1H-pyrazolo[3,4-b]pyridin-5-yl)pyridin-3-amine], the half-inhibitory concentration (IC50) in experiment [1] came to 2.6 nM. The EC (100% of TGF-beta3 activity) in experiment [2] was 43.2 nM. In experiment [3], the 50% effective concentration (EC50) was found to be 40 nM.
Take `CCCCC(=O)Nc1cncc(-c2cnc3[nH]nc(-c4nc5c(-c6cc(F)cc(NCCN(C)C)c6)ccnc5[nH]4)c3c2)c1` [Compound 432, N-(5-(3-(7-(3-((2-(Dimethylamino)ethyl)amino)-5-fluorphenyl)-3H-imidazo[4,5-b]pyridin-2-yl)-1H-pyrazolo[3,4-b]pyridin-5-yl)pyridin-3-yl)pentanamide]: the IC50 in experiment [1] came to 21.7 nM. Moreover, the EC (100% of TGF-beta3 activity) in experiment [2] was determined as 57 nM.
Regarding `CC(C)Nc1cncc(-c2cnc3[nH]nc(-c4nc5c(-c6cccnc6)ccnc5[nH]4)c3c2)c1` [Compound 75, N-Isopropyl-5-(3-(7-(pyridin-3-yl)-3H-imidazo[4,5-b]pyridin-2-yl)-1H-pyrazolo[3,4-b]pyridin-5-yl)pyridin-3-amine], the 50% inhibitory concentration (IC50) in experiment [1] was 45.4 nM. Also, in experiment [2], the EC (100% of TGF-beta3 activity) stood at 58.5 nM.
As to `Cc1ncc(-c2cnc3[nH]nc(-c4nc5c(-c6cccc(F)c6)ccnc5[nH]4)c3c2)n1C` [Compound 913, 5-(1,2-Dimethyl-1H-imidazol-5-yl)-3-(7-(3-fluorophenyl)-3H-imidazo[4,5-b]pyridin-2-yl)-1H-pyrazolo[3,4-b]pyridine], the midpoint of inhibition in experiment [1], the IC50, lay at 66 nM. In addition, in experiment [2], the “Max. Activity as % TGF-β3 activity” value is given as 300% and the EC (100% of TGF-beta3 activity) is 117 nM. Further, in experiment [3], the EC50 was determined as 216 nM.
In experiment [1], `CCC(=O)Nc1cncc(-c2cnc3[nH]nc(-c4nc5c(-c6cccs6)ccnc5[nH]4)c3c2)c1` [Compound 285, N-(5-(3-(7-(Thiophen-2-yl)-3H-imidazo[4,5-b]pyridin-2-yl)-1H-pyrazolo[3,4-b]pyridin-5-yl)pyridin-3-yl)propionamide] came in with an IC50 of 3.3 nM. For the same molecule, the EC (100% of TGF-beta3 activity) in experiment [2] amounted to 48.9 nM. For the same molecule, the concentration giving a half-maximal response (EC50) in experiment [3] was ≤ 9 nM.
The molecule `Cc1ccncc1-c1cnc2[nH]nc(-c3nc4c(-c5cc(F)cc(CNS(C)(=O)=O)c5)ccnc4[nH]3)c2c1` [Compound 393, N-(3-Fluoro-5-(2-(5-(4-methylpyridin-3-yl)-1H-pyrazolo[3,4-b]pyridin-3-yl)-3H-imidazo[4,5-b]pyridin-7-yl)benzyl)methanesulfonamide] gave an IC50 in experiment [1] of 20.6 nM. In experiment [2], the “Max. Activity as % TGF-β3 activity” value worked out at 100% and the EC (100% of TGF-beta3 activity) is 140 nM. In addition, the EC50 in experiment [3] came out at 674 nM.
As for `O=C(Nc1cncc(-c2cnc3[nH]nc(-c4nc5c(-c6ccc(F)cc6)ccnc5[nH]4)c3c2)c1)C1CCC1` [Compound 38, N-(5-(3-(7-(4-Fluorophenyl)-3H-imidazo[4,5-b]pyridin-2-yl)-1H-pyrazolo[3,4-b]pyridin-5-yl)pyridin-3-yl)cyclobutanecarboxamide], in experiment [1], the IC50 was determined as 11.5 nM. For the same molecule, the EC (100% of TGF-beta3 activity) in experiment [2] worked out at 48.6 nM. Further, in experiment [3], the EC50 was 118 nM.
Take `CN1CCN(c2ccnc3[nH]c(-c4n[nH]c5ncc(-c6cncc(CN7CCCCC7)c6)cc45)nc23)CC1` [Compound 198, 3-(7-(4-Methylpiperazin-1-yl)-3H-imidazo[4,5-b]pyridin-2-yl)-5-(5-(piperidin-1-ylmethyl)pyridin-3-yl)-1H-pyrazolo[3,4-b]pyridine]: the 50% inhibitory concentration (IC50) in experiment [1] was > 10000 nM. The concentration for a half-maximal effect (EC50) in experiment [3] stood at 3040 nM.
The matching figures for `c1cncc(-c2cnc3[nH]nc(-c4nc5cccnc5[nH]4)c3c2)c1` [Compound 212, 3-(3H-Imidazo[4,5-b]pyridin-2-yl)-5-(pyridin-3-yl)-1H-pyrazolo[3,4-b]pyridine]: 214 nM and 501 nM.
The matching figures for `O=C(Nc1cncc(-c2cnc3[nH]nc(-c4nc5c(N6CCCCC6)ccnc5[nH]4)c3c2)c1)C1CC1` [Compound 151, N-(5-(3-(7-(Piperidin-1-yl)-3H-imidazo[4,5-b]pyridin-2-yl)-1H-pyrazolo[3,4-b]pyridin-5-yl)pyridin-3-yl)cyclopropanecarboxamide]: 247 nM and 414 nM.
On the same counts, the results for `Cc1cn(-c2ccnc3[nH]c(-c4n[nH]c5ncc(-c6cncc(NC(=O)C(C)(C)C)c6)cc45)nc23)cn1` [Compound 165, N-(5-(3-(7-(4-Methyl-1H-imidazol-1-yl)-3H-imidazo[4,5-b]pyridin-2-yl)-1H-pyrazolo[3,4-b]pyridin-5-yl)pyridin-3-yl)pivalamide] are > 10000 nM and ≥ 9990 nM.
For `CCNCc1cncc(-c2cnc3[nH]nc(-c4nc5c(-c6ccccn6)ccnc5[nH]4)c3c2)c1` [Compound 114, N-((5-(3-(7-(Pyridin-2-yl)-3H-imidazo[4,5-b]pyridin-2-yl)-1H-pyrazolo[3,4-b]pyridin-5-yl)pyridin-3-yl)methyl)ethanamine], the IC50 in experiment [1] was > 10000 nM. Moreover, the EC50 in experiment [3] was ≥ 9990 nM.
The matching figures for `Fc1cccc(-c2ccnc3[nH]c(-c4n[nH]c5ncc(-c6ccncc6)cc45)nc23)c1` [Compound 924, 3-(7-(3-Fluorophenyl)-3H-imidazo[4,5-b]pyridin-2-yl)-5-(pyridin-4-yl)-1H-pyrazolo[3,4-b]pyridine]: > 10000 nM and ≥ 9990 nM.
Regarding `c1cc(-c2ccoc2)c2nc(-c3n[nH]c4ncc(-c5cncc(CNCC6CCCC6)c5)cc34)[nH]c2n1` [Compound 282, 1-Cyclopentyl-N-((5-(3-(7-(furan-3-yl)-3H-imidazo[4,5-b]pyridin-2-yl)-1H-pyrazolo[3,4-b]pyridin-5-yl)pyridin-3-yl)methyl)methanamine], the concentration for half-maximal inhibition (IC50) in experiment [1] is > 10000 nM. Also, the concentration giving a half-maximal response (EC50) in experiment [3] is ≥ 9990 nM.
On to `Fc1cccc(-c2ccnc3[nH]c(-c4n[nH]c5ncc(C6=CCNCC6)cc45)nc23)c1` [Compound 910, 3-(7-(3-Fluorophenyl)-3H-imidazo[4,5-b]pyridin-2-yl)-5-(1,2,3,6-tetrahydropyridin-4-yl)-1H-pyrazolo[3,4-b]pyridine], for which the half-maximal inhibitory concentration (IC50) in experiment [1] is > 10000 nM. The EC50 in experiment [3] was ≥ 9990 nM.
In the case of `Cn1cc(-c2cnc3[nH]nc(-c4nc5c(-c6cccc(F)c6)ccnc5[nH]4)c3c2)cn1` [Compound 912, 3-(7-(3-Fluorophenyl)-3H-imidazo[4,5-b]pyridin-2-yl)-5-(1-methyl-1H-pyrazol-4-yl)-1H-pyrazolo[3,4-b]pyridine], the half-maximal inhibitory concentration (IC50) in experiment [1] was determined as 221 nM. For the same molecule, the half-maximal effective concentration (EC50) in experiment [3] is 118 nM.
